Here are results for 2 molecules from patent publication US20250381184A1, “PHARMACEUTICAL COMBINATION COMPRISING AN ANTI-CD3 ANTIBODY AND A CXCR3 ANTAGONIST” (Idorsia Pharmaceuticals Ltd, priority 2022, published 2025).

The test system of one series is NOD mice. As to the kind of experiment: Spontaneous T1D model (NOD mice), blood glucose values. Conditions: for % of reduction from Isotype/vehicle group: BGV at week 40 of age; for efficacy on the BGV: therapeutic setting. The class given is in vivo. An excerpt: The efficacy of COMPOUND and of an anti-CD3 monoclonal antibody alone or in combination, or the combination of an anti-CD3 monoclonal antibody and anti-CXCL10 monoclonal antibody can be determined in inducible and spontaneous mouse models of T1D.
The efficacy of COMPOUND and the anti-CD3 monoclonal antibody alone or in combination can be determined in non-obese diabetic (NOD) mice, a spontaneous model for studying T1D (Chen et al. Front Endocrinol 2018, 9:51).
Blood glucose concentrations may be measured using a dynaValeo glucometer from dynamiCARE.
NOD mice usually develop diabetes defined as a blood glucose value (BGV)≥300 mg/dl between 13 and 30 weeks of age.
Groups of 14 to 17 mice are treated in a therapeutic setting, starting from the first measurement of diabetes (BGV≥300 mg/dL) for each mouse (day 1). Mice are randomized based on BGV and age at treatment initiation in five treatment groups: • Group 1: Isotype injected i.v., q.d., from day 1 to day 3+ control food from day 1 until end of the study (Isotype/vehicle) • Group 2: Isotype injected i.v., q.d., from day 1 to day 3+ food loaded with COMPOUND (0.6 mg/g of food) from day 1 until end of the study (Isotype/COMPOUND) • Group 3: Anti-CD3 antibody (30 μg), i.v., q.d., from day 1 to day 3+ control food from day 1 until end of the study (anti-CD3/vehicle) • Group 4: Anti-CD3 antibody (30 μg), i.v., q.d., from day 1 to day 3+ anti-CXCL10 antibody (100 μg), i.p., from day 4 to day 19 (administrations every 2nd/3rd day, 8 administations in total)+control food from day 1 until end of the study (anti-CD3/anti-CXCL10) • Group 5: Anti-CD3 antibody (30 μg), i.v., q.d., from day 1 to day 3+ food loaded with COMPOUND (0.6 mg/g of food) from day 1 until end of the study (anti-CD3/COMPOUND)
BGVs are assessed on a weekly basis and are compared between Isotype/control food-treated mice (group 1) and mice receiving the different treatments. For each mouse the experiment is terminated when the respective mouse reaches 40 weeks of age.
In this sub-analysis, only the mice not severely hyperglycemic at treatment initiation (defined as 300 mg/dL≤BGV≤400 mg/dL) were included in the study results.

The nature of series [1]: COMPOUND plasma concentration in LPS-induced lung inflammation model. As to conditions: food admix, increasing doses. Type of series: in vivo, Male DBA/1 mice. The procedure: Groups of 11 to 22 mice are given food mixed with different concentrations of COMPOUND (food admix) starting 3 days prior the LPS challenge and continuing during the whole duration of the experiment. The study consists of seven treatment groups: • 1. Control food admix (no COMPOUND), n=22 • 2. Food admix containing 0.006 mg COMPOUND per g food, n=12 • 3. Food admix containing 0.02 mg COMPOUND per g food, n=12 • 4. Food admix containing 0.06/0.07 mg COMPOUND per g food, n=24 • 5. Food admix containing 0.2 mg COMPOUND per g food, n=12 • 6. Food admix containing 0.6 mg COMPOUND per g food, n=11 • 7. Food admix containing 2 mg COMPOUND per g food, n=11
The experiment is terminated at day 3, 72 hours post LPS challenge. BAL is collected and number of T cells expressing CXCR3 quantified by flow cytometry as described in Pouzol et al., Front Pharmacol 2021,12(2991), doi: 10.3389/fphar.2021.748740. Plasma samples are taken for COMPOUND concentration determination.

Series [2] deals with CXCR3-expressing CD8+ T cell migration into the BAL. In words: LPS-induced lung inflammation model, BAL CXCR3+CD8+ T cells by flow cytometry. Type of series: in vivo, Male DBA/1 mice.
Series [3] has as its system patients with severe corticosteroid-refractory ulcerative colitis. As to conditions: 15 μg/kg/day reduced to 10 μg/kg/day; cited from earlier work.

In the case of `Cc1ncn(CC(=O)N2CCN(c3sc(C(F)(F)F)nc3-c3cnc(C(F)(F)F)nc3)C[C@H]2CCO)n1` [COMPOUND, 1-{(R)-2-(2-Hydroxy-ethyl)-4-[2-trifluoromethyl-4-(2-trifluoromethyl-pyrimidin-5-yl)-thiazol-5-yl]-piperazin-1-yl}-2-(3-methyl-[1,2,4]triazol-1-yl)-ethanone], the “% of reduction from Isotype/vehicle group” value with NOD mice (NOD mice, n = 14-17/group) amounted to 9%; in the series with NOD mice (non-severe diabetic NOD mice, n = 7-11/group), 13%. The “efficacy on the BGV” value in the series on NOD mice (NOD mice) and in the series on NOD mice (non-severe diabetic NOD mice sub-analysis) was “minimal” in each case. For the same molecule, the “BGV at week 40 of age (mg/dL) (Mean ± SEM)” value worked out at 540.9 ± 35.4 mg/dL in the series on NOD mice (NOD mice, treatment from BGV≥300 mg/dL, n = 14-17/group) and 517.3 ± 63.9 mg/dL with NOD mice (non-severe diabetic NOD mice (300 mg/dL ≤ BGV ≤ 400 mg/dL at treatment initiation), n = 7-11/group). Moreover, the “mice that showed disease progression” value in the series on NOD mice (non-severe diabetic NOD mice, end of the study period) turned out to be 86%. For the same molecule, in series [1], the COMPOUND plasma concentration result was “dose-dependent increase”. The “CXCR3+CD8+ T cell migration into the BAL” value in series [2] (dose 0.6 mg of COMPOUND/g of food) was “significantly and maximally reduces”. The “BAL CXCR3+CD8+ T cells” value in series [2] (preventive setting, food admix 0.006 to 2 mg COMPOUND per g food from 3 days prior LPS, BAL 72 hours post LPS challenge) was “dose-dependent decrease”.

B1: visilizumab: humanized IgG2 anti-CD3 antibody with two point mutations in its Fc portion for FcR non-binding properties (antibody, chains of the INN, looked up, V domains shown)
VH: QVQLVQSGAEVKKPGASVKVSCKASGYTFISYTMHWVRQAPGQGLEWMGYINPRSGYTHYNQKLKDKATLTADKSASTAYMELSSLRSEDTAVYYCARSAYYDYDGFAYWGQGTLVTVSS
VL: DIQMTQSPSSLSASVGDRVTITCSASSSVSYMNWYQQKPGKAPKRLIYDTSKLASGVPSRFSGSGSGTDFTLTISSLQPEDFATYYCQQWSSNPPTFGGGTKVEIK
Regarding B1, the “patients demonstrating a clinical response” value in series [3] is 84%.
